Measured values: ChEMBL document CHEMBL5257063, “Dendrillic Acids A and B: Nitrogenous, Rearranged Spongian Nor-Diterpenes from a Dendrilla sp. Marine Sponge” (J Nat Prod, 2023)
In brackets after ≈: the same amount, converted by molar mass.

Assays:
Giardia intestinalis = assay: Antiparasitic activity against Giardia duodenalis WB-1B 713 assessed as parasite growth inhibition measured after 96 hrs under anaerobic conditions; assay type: functional
Tritrichomonas foetus = assay: Anti-protozoal activity against Tritrichomonas foetus KV-1 measured after 72 hrs under anaerobic conditions; assay type: functional
Staphylococcus aureus = assay: Antibacterial activity against Staphylococcus aureus ATCC 25923 measured after 48 hrs by resazurin reagent based assay; assay type: functional
Bacillus subtilis = assay: Antibacterial activity against Bacillus subtilis ATCC 6633 measured after 48 hrs by resazurin reagent based assay; assay type: functional
[1] = Cytotoxicity against mouse NS-1 cells incubated for 96 hrs by resazurin dye based assay; assay type: functional
[2] = Cytotoxicity against human NFF cells incubated for 96 hrs by resazurin dye based assay; assay type: toxicity, cell-based; conditions: read-out: MIC
Saccharomyces cerevisiae = assay: Antifungal activity against Saccharomyces cerevisiae ATCC 9763 measured after 48 hrs by bromocresol green reagent based assay; assay type: functional
Candida albicans = assay: Antifungal activity against Candida albicans ATCC 10231 measured after 48 hrs by bromocresol green reagent based assay; assay type: functional

| Compound | MIC (Giardia intestinalis) [µg/mL] | MIC (Tritrichomonas foetus) [µg/mL] | MIC (Staphylococcus aureus) [µg/mL] | MIC (Bacillus subtilis) [µg/mL] | MIC (Saccharomyces cerevisiae) [µg/mL] | MIC (Candida albicans) [µg/mL] | MIC [1] [µg/mL] | MCC at 96 h [2] [µg/mL] |
| --- | --- | --- | --- | --- | --- | --- | --- | --- |
| Cc1ncc([N+](=O)[O-])n1CCO [METRONIDAZOLE] | 0.3 (≈ 1.75 µM) | 0.2 (≈ 1.17 µM) |  |  |  |  |  |  |
| CSC[S@@+]([O-])CC(CO)NC(=O)/C=C/c1c(C)[nH]c(=O)[nH]c1=O (some centres undefined) [SPARSOMYCIN] |  |  |  |  |  |  | 0.6 (≈ 1.66 µM) | 0.6 |
| CN(CC[C@H](N)CC(=O)N[C@H]1C=C[C@H](n2ccc(N)nc2=O)O[C@@H]1C(=O)O)C(=N)N.Cl |  |  |  |  | 3.1 | > 200 |  |  |

The next lines start with results.

| MIC (Giardia intestinalis) [µg/mL] | MIC (Tritrichomonas foetus) [µg/mL] | MIC (Staphylococcus aureus) [µg/mL] | MIC (Bacillus subtilis) [µg/mL] | MIC (Saccharomyces cerevisiae) [µg/mL] | MIC (Candida albicans) [µg/mL] | Compound | MIC [1] [µg/mL] | MCC at 96 h [2] [µg/mL] |
| --- | --- | --- | --- | --- | --- | --- | --- | --- |
|  |  | 12.5 (≈ 28.1 µM) | 6.3 (≈ 14.2 µM) |  |  | CN(C)[C@@H]1C(O)=C(C(N)=O)C(=O)[C@@]2(O)C(O)=C3C(=O)c4c(O)cccc4[C@@](C)(O)[C@H]3C[C@@H]12 [TETRACYCLINE] |  |  |
| 50 (≈ 134 µM) | > 100 | > 100 | > 100 | > 200 | > 200 | C[C@H]1c2c([C@@]3(C)CCCC(C)(C)C3)ccc(C(=O)O)c2C(=O)N1CC(=O)O | > 100 | > 100 |
| 100 (≈ 268 µM) | > 100 | > 100 | > 100 | > 200 | > 200 | C[C@@H]1c2c([C@@]3(C)CCCC(C)(C)C3)ccc(C(=O)O)c2C(=O)N1CC(=O)O | > 100 | > 100 |
